How the values were obtained:
MOLT-4 = test: Cell viability (CellTiter Glo), library of cancer drugs, individual or sample compression with randomized (alphabetical) pools, MOLT-4; format: cell-based; details: for DRS: MOLT-4, None (measured individually); for DRS from deconvolution: MOLT-4, Samples, 7 Pick 3 randomized (alphabetical) sample pools
Outline: (§1)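 Cells cultured with each drug individually at 1 nM–10 μM; viability by ATP luminescence (CellTiter Glo) to build dose-response curves and DRS. Samples read singly or pooled alphabetically (each drug in 3 of 7 pools), with pooled DRS recovered by additivity-based SUM deconvolution.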

REH [1] = test: Cell viability (CellTiter Glo), library of cancer drugs, individual or sample compression with randomized (alphabetical) pools, REH; format: cell-based; details: REH; for DRS: None (measured individually); for DRS from deconvolution: Samples, 7 Pick 3 randomized (alphabetical) sample pools
Outline: as §1

REH [2] = test: ATP-based luminescence cell viability (CellTiter Glo), drug response score, REH; set-up: scale not given here; details: for DRS from deconvolution: Target compression; for DRS, REH, None: no compression (individual drug)
From the text: As part of a screen, a drug could be screened at different concentrations ranging from a lowest concentration to a highest concentration. In such a scenario, multiple data structures may be obtained by the screening platform 210. […] With these multiple data structures, the analysis module 218 can generate a dose-response curve that describes the magnitude of the response of the biological target, as a function of exposure to different concentrations of the drug. Further, the analysis module 218 can calculate a metric that is indicative of the response of the biological target. In the event that the biological target is one of multiple biological targets that are introduced to the pools of drugs, the metric can be used by the screening platform 210 to better understand the relative magnitude of responses. One example of a metric is drug-response score (“DRS”). DRS can be calculated as a continuous function of multiple parameters of the non-linear dose-response curve, including the slope at the half-maximal effective concentration (also called “EC50”) and the top and bottom asymptotes of the dose-response curve. DRS can be calculated as follows: […]
where y is a continuous function of the variable dose x, a is the maximal response (i.e., the top asymptote of the curve), b is the slope of the curve, c is the IC50 (i.e., half-maximal inhibitory concentration), and d is the minimal response (i.e., the bottom asymptote of the curve). Other examples of metrics include those output by sigmoidal and Hill slide functions that, like DRS, incorporate multiple aspects of the dose-response curve into a continuous function.
Total cell viability was measured for each cancer cell line using an Adenosine TriPhosphate (“ATP”) assay, and more specifically an ATP-based luminescence assay (i.e., CellTiter Glo). Each cancer drug was screened at multiple concentrations ranging from one nanomolar (nM) to ten micromolar (UM) in order to generate a dose-response curve and calculate a drug response score (“DRS”) for each cancer cell line. The DRS was calculated as a continuous function of multiple parameters of the non-linear dose-response curve, including the slope at the half-maximal effective concentration (also called “EC50”) and the top and bottom asymptotes of the dose-response curve. […] After total cell viability was measured and DRS was calculated, the DRS of each cancer cell line in the pool was deconvolved for each cancer drug.
DRS for these anchor cell lines are bolded and italicized. Anchors can be identified based on frequency of the cell lines in pools with high DRS versus low DRS. At a high level, an anchor is predicted to be the cell line with the lowest individual DRS. In order to deconvolute individual cell line DRS values from pool DRS values, the anchor can start with an assumed DRS value of zero. Each pool can then be expressed as a polynomial of variables (cell lines in the pool) and constants (DRS value of the pool). The DRS value of each cell line can then be solved for using the anchor value and overlapping polynomial expressions. When multiple values are calculated for the final target solved from the polynomials, then the anchor has a non-zero value that can be determined based on the difference in the calculated value of the final target.
Each pool represented a co-culture of three cell lines (“Target Compression”).

Structure (SMILES) | DRS (MOLT-4) | DRS from deconvolution (MOLT-4) | DRS (REH [1]) | DRS from deconvolution (REH [1]) | DRS from deconvolution (REH [2]; 5 Pick 3 pools) | DRS from deconvolution (REH [2]; 6 Pick 3 pools) | DRS from deconvolution (REH [2]; 7 Pick 3 pools) | DRS, REH, None (REH [2])
COc1c(OCCCN2CCOCC2)ccc2c1N=C(NC(=O)c1cnc(N)nc1)N1CCN=C21 [Copanlisib] | 9.01 | 9.65 | 12.67 | 12.51 | 12.96 | 13.28 | 12.09 | 
COc1cc2ncnc(Nc3ccc(F)c(Cl)c3)c2cc1OCCCN1CCOCC1 [Gefitinib] | 2.96 | 3.02 | 5.66 | 5.59 |  |  |  | 3.15
N#Cc1ccnc(N2C(=O)CC[C@H]2C(=O)N(c2cncc(F)c2)[C@H](C(=O)NC2CC(F)(F)C2)c2ccccc2Cl)c1 [Ivosidenib] | 0.11 | 0.00 | 0.37 | 0.00 | 0.53 | 0.58 | 0.49 | 
C=CC(=O)Nc1cc(Nc2nccc(-c3cn(C)c4ccccc34)n2)c(OC)cc1N(C)CCN(C)C [Osimertinib] | 1.84 | 0.99 | 5.84 | 6.12 |  |  |  | 2.01
Cc1[nH]c2ccccc2c1CCNCc1ccc(/C=C/C(=O)NO)cc1 [Panobinostat] | 15.70 | 16.56 | 13.34 | 13.96 | 12.12 | 12.62 | 12.90 | 
CC1(C)CCC(CN2CCN(c3ccc(C(=O)NS(=O)(=O)c4ccc(NCC5CCOCC5)c([N+](=O)[O-])c4)c(Oc4cnc5[nH]ccc5c4)c3)CC2)=C(c2ccc(Cl)cc2)C1 [Venetoclax] | 2.74 | 2.89 | 3.91 | 4.05 | 1.56 | 3.18 | 1.88 | 

Source: patent US20260378560A1, “APPROACHES TO DESIGNING AND PERFORMING COMPRESSED BIOLOGICAL EXPERIMENTS AND SYSTEMS FOR IMPLEMENTING THE SAME” (EXVIVO LABS INC., priority 2023, published 2026)
